Data on 29 molecules can be found in patent US20250263408A1 (Uniquest Pty Ltd, priority 2022, published 2025).

Usually EC50 stands for the concentration needed to bring the measured effect to its halfway point. High values mean a less potent agent, low ones a more potent agent.

One test concerns the target T1, Ba/F3-Syk cells (Homo sapiens, UniProt P43405).
T1 construct: fused on or other part: Possible but unprinted fusion partner: TEL (ETV6), the usual partner for Ba/F3 lines transformed by Syk; Nothing on a partner is printed
Kind of test: Ba/F3 Proliferation Assay, Ba/F3-Syk cells (Resazurin). It counts as cell-based. As to conditions: 48-hour incubation. Here is the method: (§1) Ba/F3-Syk and Ba/F3-WT (wild type) cells were maintained at ≤1×10^6 cell/mL in RPMI (Life Technologies) with 10% FBS at 37° C. and 5% CO2 for a maximum of four weeks. Ba/F3-WT additionally contained 2 ng/mL mIL-3 (R&D Systems) to induce cellular growth. Cells were counted and dispensed at 5000 cells/well using a Multidrop Liquid Dispenser in a volume of 45 μL into black 384-well TC treated plates (Greiner) and incubated for four hours in complete media (+mIL-3 for Ba/F3-WT). Compounds were serially diluted in 100% DMSO, prior to an intermediate dilution in RPMI media. 5 μL of compound (0.4% final DMSO) was added to the cells, followed by a 48-hour incubation period. 5 μL of Resazurin (60 μM final) was then added and cells were incubated at 37° C. for three hours, before fluorescence (λex530/λem585) was measured using an Ensight Multimode Plate Reader (Perkin Elmer).

The subject of test [1] is Ba/F3-WT (wild type) cells. Kind of test: Ba/F3 Proliferation Assay, Ba/F3-WT (wild type) cells with mIL-3 (Resazurin). Particulars: Ba/F3-WT cells +mIL-3, 48-hour incubation. It counts as cell-based. As to the method:
as §1
In general terms: Alamar Blue is a resazurin reagent that responds to reducing activity.

As for “5-{[(2R)-6,6-dimethylmorpholin-2-yllmethoxy}-7-[1-(3-methyloxolan-3-yl)-1H-pyrazol-4-yl]-1,6-naphthyridine [Compound 10.13]”, the EC50 was 90.9 nM on Ba/F3-Syk cells and 3210 nM in test [1].
Turning to “7-(1-methyl-1H-pyrrol~3-yl)-5-{[(2S)-2-methylmorpholin-2-yl]methoxy}-1,6-naphthyridine [Compound 10.7]”, the EC50 was determined as 274 nM at Ba/F3-Syk cells and 1200 nM in test [1].
For “7-(1-tert-butyl-1H-pyrazol-4-yl)-5-{[(2R)-2-ethylmorpholin-2-yl]methoxy}-1,6-naphthyridine [Compound 10.15]”, in that order: 92.2 nM and 1680 nM.
For `Cn1cc(-c2cc3ncccc3c(OC[C@@H]3CN[C@H]4CCC[C@H]4O3)n2)cn1` (racemic) [Compound 2.53, 5-{[rel-(2R,4aR,7aS)-octahydrocyclopenta[b][1,4]oxazin-2-yl]methoxy}-7-(1-methyl-1H-pyrazol-4-yl)-1,6-naphthyridine], the EC50 on Ba/F3-Syk cells was 129 nM; in test [1] (Mus musculus, BaF3, 48 h), 2560 nM.
On the same counts, the results for `C[C@@H]1O[C@@H](COc2nc(-c3cnn(C(C)(C)C)c3)cc3ncccc23)CN[C@@H]1C` (racemic) [Compound 2.80, 7-(1-tert-butyl-1H-pyrazol-4-yl)-5-{[rel-(2S,5S,6R)-5,6-dimethylmorpholin-2-yl]methoxy}-1,6-naphthyridine] are 36 nM and 1600 nM.
As to `Cn1cc(-c2cc3ncccc3c(OC[C@@H]3CN[C@@H]4CCC[C@@H]4O3)n2)cn1` (relative stereo) [Compound 2.54, 5-{[rel-(2S,4aR,7aS)-octahydrocyclopenta[b][1,4]oxazin-2-yl]methoxy}-7-(1-methyl-1H-pyrazol-4-yl)-1,6-naphthyridine], the EC50 at Ba/F3-Syk cells was determined as 288 nM; in test [1] (Mus musculus, BaF3, 48 h), 1580 nM.
On the same counts, the results for `Cn1ccc(-c2cc3ncccc3c(OC[C@@H]3CN[C@@H]4C[C@@H]4O3)n2)c1` (relative stereo) [Compound 2.71, 7-(1-methyl-1H-pyrrol-3-yl)-5-{[(rel-1S,3S,6R)-2-oxa-5-azabicyclo[4.1.0]heptan-3-yl]methoxy}-1,6-naphthyridine] are 1330 nM and over 10000 nM.
With `C[C@@H]1O[C@H](COc2nc(-c3cnn(C(C)(C)C)c3)cc3ncccc23)CN[C@@H]1C` (relative stereo) [Compound 2.81, 7-(1-tert-butyl-1H-pyrazol-4-yl)-5-{[rel-(2S,5R,6S)-5,6-dimethylmorpholin-2-yl]methoxy}-1,6-naphthyridine], the EC50 was 73.2 nM at Ba/F3-Syk cells and 2070 nM in test [1] (Mus musculus, BaF3, 48 h).
For the molecule `CC(C)(C)n1cc(-c2cc3ncccc3c(OC[C@@H]3CN[C@H]4CCC[C@H]4O3)n2)cn1` (relative stereo) [Compound 2.85, 5-{[rel-(2S,4aS,7aR)-octahydrocyclopenta[b][1,4]oxazin-2-yl]methoxy}-7-(1-tert-butyl-1H-pyrazol-4-yl)-1,6-naphthyridine], the EC50 at Ba/F3-Syk cells is 59.3 nM. This lies in the double-digit nanomolar range.
As to `CC(C)(C)n1cc(-c2cc3ncccc3c(O[C@@H]3CC[C@@H]4NCCO[C@@H]43)n2)cn1` (relative stereo) [Compound 2.90, 5-[rel-(4aS,7R,7aS)-octahydrocyclopenta[b][1,4]oxazin-7-yloxy]-7-(1-tert-butyl-1H-pyrazol-4-yl)-1,6-naphthyridine], the EC50 at Ba/F3-Syk cells is 54.6 nM; in test [1] (Mus musculus, BaF3, 48 h), over 1000 nM.
Turning to `CC(C)(C)n1cc(-c2cc3ncccc3c(O[C@H]3CC[C@@H]4NCCO[C@@H]43)n2)cn1` (relative stereo) [Compound 2.91, 5-[rel-(4aS,7S,7aS)-octahydrocyclopenta[b][1,4]oxazin-7-yloxy]-7-(1-tert-butyl-1H-pyrazol-4-yl)-1,6-naphthyridine], the 50% effective concentration (EC50) at Ba/F3-Syk cells was 51.8 nM; in test [1] (Mus musculus, BaF3, 48 h), 1040 nM.
With `CC(C)(C)n1cc(-c2cc3ncccc3c(OC[C@H]3OC[C@@H]4C[C@H]3N4)n2)cn1` (relative stereo) [Compound 2.97, 7-(1-tert-butyl-1H-pyrazol-4-yl)-5-{[rel-(1R,2S,5S)-3-oxa-6-azabicyclo[3.1.1]heptan-2-yl]methoxy}-1,6-naphthyridine], the EC50 was 347 nM at Ba/F3-Syk cells and 4240 nM in test [1].
Take `CC(C)(C)n1cc(-c2cc3ncccc3c(OC[C@H]3O[C@H]4CCN[C@@H]3C4)n2)cn1` (single isomer, unassigned) [Compound 13.11]: the concentration for a half-maximal effect (EC50) is 1940 nM on Ba/F3-Syk cells and over 10000 nM in test [1] (Mus musculus, BaF3, 48 h).
Regarding `CC(C)(C)n1cc(-c2cc3ncccc3c(OC[C@H]3O[C@H]4CCN[C@@H]3C4)n2)cn1` (single isomer, unassigned) [Compound 13.12], the EC50 on Ba/F3-Syk cells was 74.4 nM; in test [1], over 5000 nM.
The molecule `CC(C)(C)n1cc(-c2cc3ncccc3c(OC[C@@H]3CN[C@H]4CCC[C@H]4O3)n2)cn1` (stereo in doubt) [Compound 2.94, 5-{[(2S,4aS,7aR)-octahydrocyclopenta[b][1,4]oxazin-2-yl]methoxy}-7-(1-tert-butyl-1H-pyrazol-4-yl)-1,6-naphthyridine] gave a concentration for a half-maximal effect (EC50) at Ba/F3-Syk cells of 145 nM.
Regarding `CC(C)(C)n1cc(-c2cc3ncccc3c(OC[C@H]3CN[C@@H]4CCC[C@@H]4O3)n2)cn1` (stereo in doubt) [Compound 2.95, 5-{[(2R,4aR,7aS)-octahydrocyclopenta[b][1,4]oxazin-2-yl]methoxy}-7-(1-tert-butyl-1H-pyrazol-4-yl)-1,6-naphthyridine], the EC50 on Ba/F3-Syk cells stood at 22.1 nM; in test [1] (Mus musculus, BaF3, 48 h), 1850 nM.
On to `Cc1ccnc2cc(-c3cnn(C(C)C)c3)cc(OC[C@@H]3CNCC(C)(C)O3)c12` (stereo in doubt) [Compound 14.7, 5-[(6,6-dimethylmorpholin-2-yl)methoxy]-4-methyl-7-[1-(propan-2-yl)-1H-pyrazol-4-yl]quinoline], for which the EC50 amounted to 2.4 nM on Ba/F3-Syk cells and 930 nM in test [1] (Mus musculus, BaF3, 48 h).
On the same counts, the results for `C=Cc1cnc2cc(-c3cnn(C(C)(C)C)c3)nc(OC[C@@H]3CNCC(C)(C)O3)c2c1` (stereo in doubt) [Compound 14.8, 7-(1-tert-butyl-1H-pyrazol-4-yl)-5-[(6,6-dimethylmorpholin-2-yl)methoxy]-3-ethenyl-1,6-naphthyridine] are 1170 nM and over 10000 nM.
For `CC(C)(C)n1cc(-c2cc(OC[C@@H]3CNCCO3)c3cccnc3c2)cn1` [Compound 1, 7-(1-tert-butyl-1H-pyrazol-4-yl)-5-{[(2S)-morpholin-2-yl]methoxy}quinoline], in that order: 44.2 nM and 4670 nM.
On to `Cn1cc(-c2cc(OC[C@@H]3CNCCO3)c3cccnc3c2)cn1` [Compound 2, 7-(1-methyl-1H-pyrazol-4-yl)-5-{[(2S)-morpholin-2-yl]methoxy}quinoline], for which the EC50 at Ba/F3-Syk cells was 166 nM; in test [1] (Mus musculus, BaF3, 48 h), 2430 nM.
`Cc1noc(C)c1-c1cc2ncccc2c(OC[C@@H]2CNCCO2)n1` [Compound 2.14, 7-(3,5-dimethyl-1,2-oxazol-4-yl)-5-{[(2S)-morpholin-2-yl]methoxy}-1,6-naphthyridine]: the EC50 was 3620 nM at Ba/F3-Syk cells and 4830 nM in test [1] (Mus musculus, BaF3, 48 h).
For `c1cnc2cc(-c3ccn[nH]3)nc(OC[C@@H]3CNCCO3)c2c1` [Compound 2.28, 5-{[(2S)-morpholin-2-yl]methoxy}-7-(1H-pyrazol-5-yl)-1,6-naphthyridine], in that order: 734 nM and over 10000 nM.
For `c1cnc2cc(-c3cncs3)nc(OC[C@@H]3CNCCO3)c2c1` [Compound 2.29, 5-{[(2S)-morpholin-2-yl]methoxy}-7-(1,3-thiazol-5-yl)-1,6-naphthyridine], in that order: 1020 nM and over 10000 nM.
For the molecule `Cc1ncc(-c2cc3ncccc3c(OC[C@@H]3CNCCO3)n2)s1` [Compound 2.30, 7-(2-methyl-1,3-thiazol-5-yl)-5-{[(2S)-morpholin-2-yl]methoxy}-1,6-naphthyridine], the EC50 on Ba/F3-Syk cells was found to be 206 nM; in test [1] (Mus musculus, BaF3, 48 h), 6970 nM.
On the same counts, the results for `Cn1ccc(-c2cc3ncccc3c(OC[C@@H]3CNCCO3)n2)n1` [Compound 2.31, 7-(1-methyl-1H-pyrazol-3-yl)-5-{[(2S)-morpholin-2-yl]methoxy}-1,6-naphthyridine] are 1740 nM and over 10000 nM.
With `Clc1ccc(-c2cc3ncccc3c(OC[C@@H]3CNCCO3)n2)s1` [Compound 2.33, 7-(5-chlorothiophen-2-yl)-5-{[(2S)-morpholin-2-yl]methoxy}-1,6-naphthyridine], the EC50 worked out at 390 nM on Ba/F3-Syk cells and 1590 nM in test [1] (Mus musculus, BaF3, 48 h).
On the same counts, the results for `Clc1csc(-c2cc3ncccc3c(OC[C@@H]3CNCCO3)n2)c1` [Compound 2.34, 7-(4-chlorothiophen-2-yl)-5-{[(2S)-morpholin-2-yl]methoxy}-1,6-naphthyridine] are 394 nM and 1560 nM.
On the same counts, the results for `Cc1cc(-c2cc3ncccc3c(OC[C@@H]3CNCCO3)n2)sc1Cl` [Compound 2.35, 7-(5-chloro-4-methylthiophen-2-yl)-5-{[(2S)-morpholin-2-yl]methoxy}-1,6-naphthyridine] are 667 nM and 619 nM.
Take `CCc1ccc(-c2cc3ncccc3c(OC[C@@H]3CNCCO3)n2)s1` [Compound 2.36, 7-(5-ethylthiophen-2-yl)-5-{[(2S)-morpholin-2-yl]methoxy}-1,6-naphthyridine]: the EC50 at Ba/F3-Syk cells was determined as 279 nM; in test [1] (Mus musculus, BaF3, 48 h) it was 2050 nM.
